These are literature values, as cited in patent US20090148519A1, “PULSED-RELEASE PREPARATION HAVING IMPROVED DISINTEGRATION PROPERTIES IN VIVO” (priority 2005, published 2009).

In general, half-life refers to how long it takes for the measured level to halve.

SMILES strings stand for the structures.

On to `COc1ccnc(C[S+]([O-])c2nc3cc(OC(F)F)ccc3[nH]2)c1OC` (centres unmarked) [pantoprazole], for which the “half-life at pH 7” value was 39 hours.
As to `COCCCOc1ccnc(C[S+]([O-])c2nc3ccccc3[nH]2)c1C` (centres unmarked) [rabeprazole], the “half-life at pH 7” value was 30 minutes.
